Assay results published in patent US8921082B2, “Method for producing xylitol from lignocellulosic hydrolysates without detoxification” (priority 2009, dated 2014).

Tested on: Candida sp. strain
Test: Tolerance of the strain Candida sp. to furfural (xylose fermentation with furfural added)
Assay type: cell-based
Experimental: The fermentation medium contained 97 g/L sterilized synthetic xylose solution with furfural in a concentration range of 1-3 g/L added. The fermentation temperature is controlled at 30° C., the agitation of the incubator is maintained at 150 rpm, and the ratio of the inocula size of the culture and the volume of the fermentation medium is 1:6 (v/v).

Structure (SMILES): O=Cc1ccco1 [furfural]
- tolerance of the strain to furfural (97 g/L synthetic xylose solution, furfural 1-3 g/L added, 30° C., 150 rpm): higher than 3 g/L
- xylitol yield (furfural 1-3 g/L in 97 g/L synthetic xylose solution): higher than 0.7 g/g
- xylose fermentation capacity of the strain (furfural 3 g/L, 97 g/L synthetic xylose solution, compared with no furfural): the same as that without furfural
